Test results reported in patent US8680113B2, “BMI-1 protein expression modulators” (PTC Therapeutics, Inc., priority 2008, dated 2014).

How the values were obtained:
Bmi-1 [1] = experiment: Sandwich ELISA Assay (Bmi-1 ELISA in HT-1080 cells); type: cell-based, human
Procedure, shortened: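 Lysate Bmi-1 was quantified against a recombinant GST-Bmi-1 standard (0-8000 pg/mL) by sandwich ELISA read at OD450 with OD570 reference. The ELISA used mouse monoclonal capture, rabbit anti-Bmi-1, HRP anti-rabbit IgG and TMB. Before lysis, HT-1080 cells seeded at 8000/well were exposed to compounds for 40-48 h at 37°C with 0.5% final DMSO.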

Bmi-1 [2] = experiment: Cell Model Assay: Bmi-1 expression in HT1080; type: cell-based, human; details: HT1080 (fibrosarcoma)
Protocol: (§1) Using assay conditions known to those skilled in the art, the ability of the compounds described herein to reduce Bmi-1 expression in HT1080 (fibrosarcoma), U87-MG (glioblastoma), T98G (glioblastoma), K562 (chronic myelogenous leukemia) and KG1 (acute myelogenous leukemia) cell lines was tested (at test compound concentrations calculated from the ELISA assay data shown in Example 1) compared to puromycin as a control to provide the EC50 values shown in Table 2. The term “ND” means that data was not determined.

Bmi-1 [3] = experiment: Cell Model Assay: Bmi-1 expression in U87-MG; type: cell-based; details: U87-MG (glioblastoma)
Protocol: as §1

MCL-Mino = experiment: Mantle Cell Lymphoma Assay: cytotoxicity, Mino; type: cell-based; details: MCL-Mino, 72 hrs; for viability at 0.004 µM / viability at 0.037 µM / viability at 0.11 µM / viability at 0.33 µM / viability at 1 µM / viability at 3 µM: Homo sapiens, read-out: Cell Viability (%)
Description: (§2) MCL cell lines Jeko, Mino, and Rec-1 were provided by American Type Culture Collection: The Bioresource Center (Manassas, Va.). […] Carlsbad, Calif.) in T-75 culture flasks. Cell concentration was maintained between 2 to 3×10^5 cells/mL. Early passage cells (passages 2-4) were used for all experiments. Ficoll-Histopaque density sedimentation (Sigma Aldrich) was used for separation of debris and purification of cell lines prior to experiments. […] The cytotoxic effect of test compounds on the MCL-cell lines was assessed by measuring cell concentration and cell viability using a Beckman Coulter Vi-Cell Counter. Controls and treated cells were harvested and counted at day 3.

MCL-Rec1 = experiment: Mantle Cell Lymphoma Assay: cytotoxicity, Rec-1; type: cell-based; details: 72 hrs; for viability at 0.004 µM / viability at 0.037 µM / viability at 0.11 µM / viability at 0.33 µM / viability at 1 µM / viability at 3 µM: Homo sapiens, read-out: Cell Viability (%)
Description: as §2

MM cell line = experiment: Multiple Myeloma Assay; type: cell-based; details: 72 hrs in culture

COc1cc(Br)c(Nc2nc(-c3c(C)nc4ncccn34)cs2)c(Br)c1 [Cpd 1, N-(2,6-dibromo-4-methoxyphenyl)-4-(2-methylimidazo[1,2-a]pyrimidin-3-yl)thiazol-2-amine]
IC50 (Bmi-1 [1]): < 500 nM | EC50 (Bmi-1 [2]): 390 nM | EC50 (Bmi-1 [3]): 420 nM | viability at 0.004 µM (MCL-Mino; 0.004 μM): 94.7 ± 0.2% | viability at 0.037 µM (MCL-Mino; 0.037 μM): 95.1 ± 0.2% | viability at 0.11 µM (MCL-Mino; 0.11 μM): 94.6 ± 0.2% | viability at 0.33 µM (MCL-Mino; 0.33 μM): 94.5 ± 0.3% | viability at 1 µM (MCL-Mino; 1 μM): 89.4 ± 0.4% | viability at 3 µM (MCL-Mino; 3 μM): 59.3 ± 0.5% | Cell Concentration (×10^6) (MCL-Mino; 0.004 μM): 1.53 ± 0.07 ×10^6 | Cell Concentration (×10^6) (MCL-Mino; 0.037 μM): 1.53 ± 0.05 ×10^6 | Cell Concentration (×10^6) (MCL-Mino; 0.11 μM): 1.55 ± 0.02 ×10^6 | Cell Concentration (×10^6) (MCL-Mino; 0.33 μM): 1.50 ± 0.02 ×10^6 | Cell Concentration (×10^6) (MCL-Mino; 1 μM): 0.74 ± 0.02 ×10^6 | Cell Concentration (×10^6) (MCL-Mino; 3 μM): 0.20 ± 0.01 ×10^6 | viability at 0.004 µM (MCL-Rec1; MCL-Rec1, 0.004 μM): 91.9 ± 0.5% | viability at 0.037 µM (MCL-Rec1; MCL-Rec1, 0.037 μM): 91.7 ± 0.4% | viability at 0.11 µM (MCL-Rec1; MCL-Rec1, 0.11 μM): 91.7 ± 0.2% | viability at 0.33 µM (MCL-Rec1; MCL-Rec1, 0.33 μM): 90.9 ± 0.2% | viability at 1 µM (MCL-Rec1; MCL-Rec1, 1 μM): 85 ± 0.6% | viability at 3 µM (MCL-Rec1; MCL-Rec1, 3 μM): 56.3 ± 0.4% | Cell Concentration (×10^6) (MCL-Rec1; MCL-Rec1, 0.004 μM): 1.66 ± 0.12 ×10^6 | Cell Concentration (×10^6) (MCL-Rec1; MCL-Rec1, 0.037 μM): 1.74 ± 0.05 ×10^6 | Cell Concentration (×10^6) (MCL-Rec1; MCL-Rec1, 0.11 μM): 1.73 ± 0.02 ×10^6 | Cell Concentration (×10^6) (MCL-Rec1; MCL-Rec1, 0.33 μM): 1.66 ± 0.01 ×10^6 | Cell Concentration (×10^6) (MCL-Rec1; MCL-Rec1, 1 μM): 0.96 ± 0.08 ×10^6 | Cell Concentration (×10^6) (MCL-Rec1; MCL-Rec1, 3 μM): 0.32 ± 0.01 ×10^6 | Cell Concentration, MM cell line (MM cell line; dose 0.004 μM): 1.02 ± 0.03 ×10^6 | viability at 0.004 µM (MM cell line; dose 0.004 μM): 90.07 ± 0.34% | Cell Concentration, MM cell line (MM cell line; dose 0.037 μM): 1.06 ± 0.01 ×10^6 | viability at 0.037 µM (MM cell line; dose 0.037 μM): 89.53 ± 0.71% | Cell Concentration, MM cell line (MM cell line; dose 0.11 μM): 1.13 ± 0.02 ×10^6 | viability at 0.11 µM (MM cell line; dose 0.11 μM): 90.33 ± 0.1% | Cell Concentration, MM cell line (MM cell line; dose 0.33 μM): 1.10 ± 0.02 ×10^6 | viability at 0.33 µM (MM cell line; dose 0.33 μM): 90.63 ± 0.28% | Cell Concentration, MM cell line (MM cell line; dose 1 μM): 0.54 ± 0.03 ×10^6 | viability at 1 µM (MM cell line; dose 1 μM): 85.4 ± 0.58% | Cell Concentration, MM cell line (MM cell line; dose 3 μM): 0.39 ± 0.02 ×10^6 | viability at 3 µM (MM cell line; dose 3 μM): 79.03 ± 0.45%

COc1ccc(Nc2nc(-c3c(C)nc4ncccn34)cs2)cc1 [Cpd 14, N-(4-methoxyphenyl)-4-(2-methylimidazo[1,2-a]pyrimidin-3-yl)thiazol-2-amine]
IC50 (Bmi-1 [1]): < 500 nM | EC50 (Bmi-1 [2]): 3 nM | EC50 (Bmi-1 [3]): 8 nM | viability at 0.004 µM (MCL-Mino; 0.004 μM): 92.27 ± 0.38% | viability at 0.037 µM (MCL-Mino; 0.037 μM): 64.5 ± 16.6% | viability at 0.11 µM (MCL-Mino; 0.11 μM): 40.6 ± 1.91% | viability at 0.33 µM (MCL-Mino; 0.33 μM): 18.1 ± 1.78% | viability at 1 µM (MCL-Mino; 1 μM): 13.5 ± 1.85% | viability at 3 µM (MCL-Mino; 3 μM): 14.1 ± 0.28% | Cell Concentration (×10^6) (MCL-Mino; 0.004 μM): 1.26 ± 0.01 ×10^6 | Cell Concentration (×10^6) (MCL-Mino; 0.037 μM): 0.66 ± 0.24 ×10^6 | Cell Concentration (×10^6) (MCL-Mino; 0.11 μM): 0.23 ± 0.01 ×10^6 | Cell Concentration (×10^6) (MCL-Mino; 0.33 μM): 0.06 ± 0.01 ×10^6 | Cell Concentration (×10^6) (MCL-Mino; 1 μM): 0.05 ± 0.01 ×10^6 | Cell Concentration (×10^6) (MCL-Mino; 3 μM): 0.05 ± 0.00 ×10^6 | viability at 0.004 µM (MCL-Rec1; MCL-Rec1, 0.004 μM): 88.1 ± 0.88% | viability at 0.037 µM (MCL-Rec1; MCL-Rec1, 0.037 μM): 84.5 ± 0.66% | viability at 0.11 µM (MCL-Rec1; MCL-Rec1, 0.11 μM): 34.4 ± 3.25% | viability at 0.33 µM (MCL-Rec1; MCL-Rec1, 0.33 μM): 8.93 ± 0.15% | viability at 1 µM (MCL-Rec1; MCL-Rec1, 1 μM): 9.83 ± 0.33% | viability at 3 µM (MCL-Rec1; MCL-Rec1, 3 μM): 9.5 ± 0.35% | Cell Concentration (×10^6) (MCL-Rec1; MCL-Rec1, 0.004 μM): 1.52 ± 0.02 ×10^6 | Cell Concentration (×10^6) (MCL-Rec1; MCL-Rec1, 0.037 μM): 1.22 ± 0.02 ×10^6 | Cell Concentration (×10^6) (MCL-Rec1; MCL-Rec1, 0.11 μM): 0.24 ± 0.03 ×10^6 | Cell Concentration (×10^6) (MCL-Rec1; MCL-Rec1, 0.33 μM): 0.05 ± 0.00 ×10^6 | Cell Concentration (×10^6) (MCL-Rec1; MCL-Rec1, 1 μM): 0.05 ± 0.00 ×10^6 | Cell Concentration (×10^6) (MCL-Rec1; MCL-Rec1, 3 μM): 0.05 ± 0.00 ×10^6 | Cell Concentration, MM cell line (MM cell line; dose 0.004 μM): 0.84 ± 0.01 ×10^6 | viability at 0.004 µM (MM cell line; dose 0.004 μM): 84.53 ± 0.4% | Cell Concentration, MM cell line (MM cell line; dose 0.037 μM): 0.22 ± 0.00 ×10^6 | viability at 0.037 µM (MM cell line; dose 0.037 μM): 54.4 ± 0.98% | Cell Concentration, MM cell line (MM cell line; dose 0.11 μM): 0.21 ± 0.01 ×10^6 | viability at 0.11 µM (MM cell line; dose 0.11 μM): 54.9 ± 2.79% | Cell Concentration, MM cell line (MM cell line; dose 0.33 μM): 0.21 ± 0.01 ×10^6 | viability at 0.33 µM (MM cell line; dose 0.33 μM): 57.7 ± 1.33% | Cell Concentration, MM cell line (MM cell line; dose 1 μM): 0.24 ± 0.01 ×10^6 | viability at 1 µM (MM cell line; dose 1 μM): 60.9 ± 1.26% | Cell Concentration, MM cell line (MM cell line; dose 3 μM): 0.25 ± 0.01 ×10^6 | viability at 3 µM (MM cell line; dose 3 μM): 59.9 ± 1.32%
